Results from ChEMBL document CHEMBL4715697, “Synthesis and biological activity of benzamide DNA minor groove binders” (2016).

Key:
Type in all cases: functional
HCC 2998 = experiment: Growth inhibition of human HCC 2998 cells assessed as cell growth at 1 uM incubated for 48 hrs by sulforhodamine B assay relative to control; settings: read-out: Activity
K562 [1] = experiment: Growth inhibition of human K562 cells assessed as cell growth at 0.1 uM incubated for 48 hrs by sulforhodamine B assay relative to control; settings: read-out: Activity
UACC-62 = experiment: Growth inhibition of human UACC-62 cells assessed as cell growth at 0.1 uM incubated for 48 hrs by sulforhodamine B assay relative to control; settings: read-out: Activity
SW-620 [2] = experiment: Growth inhibition of human SW-620 cells assessed as cell growth at 100 uM incubated for 48 hrs by sulforhodamine B assay relative to control; settings: read-out: Activity
NCI-H460 = experiment: Growth inhibition of human NCI-H460 cells assessed as cell growth at 0.1 uM incubated for 48 hrs by sulforhodamine B assay relative to control; settings: read-out: Activity
SN12C = experiment: Growth inhibition of human SN12C cells assessed as cell growth at 1 uM incubated for 48 hrs by sulforhodamine B assay relative to control; settings: read-out: Activity
DU-145 = experiment: Growth inhibition of human DU-145 cells incubated for 48 hrs by sulforhodamine B assay
OVCAR-3 = experiment: Growth inhibition of human OVCAR-3 cells assessed as cell growth at 1 uM incubated for 48 hrs by sulforhodamine B assay relative to control; settings: read-out: Activity
RPMI-8226 = experiment: Growth inhibition of human RPMI-8226 cells assessed as cell growth at 0.1 uM incubated for 48 hrs by sulforhodamine B assay relative to control; settings: read-out: Activity
NCI-H322M = experiment: Growth inhibition of human NCI-H322M cells assessed as cell growth at 0.1 uM incubated for 48 hrs by sulforhodamine B assay relative to control; settings: read-out: Activity
IGROV-1 = experiment: Growth inhibition of human IGROV-1 cells incubated for 48 hrs by sulforhodamine B assay
BT-549 = experiment: Growth inhibition of human BT-549 cells assessed as cell growth at 0.1 uM incubated for 48 hrs by sulforhodamine B assay relative to control; settings: read-out: Activity
MDA-MB-435 = experiment: Growth inhibition of human MDA-MB-435 cells assessed as cell growth at 0.01 uM incubated for 48 hrs by sulforhodamine B assay relative to control; settings: read-out: Activity
SR [3] = experiment: Growth inhibition of human SR cells assessed as cell growth at 0.01 uM incubated for 48 hrs by sulforhodamine B assay relative to control; settings: read-out: Activity
PC-3 = experiment: Growth inhibition of human PC-3 cells assessed as cell growth at 0.1 uM incubated for 48 hrs by sulforhodamine B assay relative to control; settings: read-out: Activity
M14 = experiment: Growth inhibition of human M14 cells assessed as cell growth at 0.1 uM incubated for 48 hrs by sulforhodamine B assay relative to control; settings: read-out: Activity
A549 = experiment: Growth inhibition of human A549/ATCC cells incubated for 48 hrs by sulforhodamine B assay
SNB-19 = experiment: Growth inhibition of human SNB-19 cells assessed as cell growth at 0.1 uM incubated for 48 hrs by sulforhodamine B assay relative to control; settings: read-out: Activity
SK-MEL-2 = experiment: Growth inhibition of human SK-MEL-2 cells assessed as cell growth at 0.01 uM incubated for 48 hrs by sulforhodamine B assay relative to control; settings: read-out: Activity
K562 [4] = experiment: Growth inhibition of human K562 cells assessed as cell growth at 1 uM incubated for 48 hrs by sulforhodamine B assay relative to control; settings: read-out: Activity
HCT-15 [5] = experiment: Growth inhibition of human HCT-15 cells assessed as cell growth at 0.01 uM incubated for 48 hrs by sulforhodamine B assay relative to control; settings: read-out: Activity
SW-620 [6] = experiment: Growth inhibition of human SW-620 cells assessed as cell growth at 0.1 uM incubated for 48 hrs by sulforhodamine B assay relative to control; settings: read-out: Activity
SK-MEL-28 [7] = experiment: Growth inhibition of human SK-MEL-28 cells incubated for 48 hrs by sulforhodamine B assay
SK-MEL-28 [8] = experiment: Growth inhibition of human SK-MEL-28 cells assessed as cell growth at 0.01 uM incubated for 48 hrs by sulforhodamine B assay relative to control; settings: read-out: Activity
T47D = experiment: Growth inhibition of human T47D cells assessed as cell growth at 0.01 uM incubated for 48 hrs by sulforhodamine B assay relative to control; settings: read-out: Activity
U-251 = experiment: Growth inhibition of human U-251 cells assessed as cell growth at 100 uM incubated for 48 hrs by sulforhodamine B assay relative to control; settings: read-out: Activity
SR [9] = experiment: Growth inhibition of human SR cells incubated for 48 hrs by sulforhodamine B assay
HCT-116 = experiment: Growth inhibition of human HCT-116 cells incubated for 48 hrs by sulforhodamine B assay
NCI-H226 = experiment: Growth inhibition of human NCI-H226 cells assessed as cell growth at 100 uM incubated for 48 hrs by sulforhodamine B assay relative to control; settings: read-out: Activity
HCT-15 [10] = experiment: Growth inhibition of human HCT-15 cells assessed as cell growth at 1 uM incubated for 48 hrs by sulforhodamine B assay relative to control; settings: read-out: Activity
SW-620 [11] = experiment: Growth inhibition of human SW-620 cells assessed as cell growth at 0.01 uM incubated for 48 hrs by sulforhodamine B assay relative to control; settings: read-out: Activity
HL-60(TB) = experiment: Growth inhibition of human HL-60(TB) cells incubated for 48 hrs by sulforhodamine B assay
A498 = experiment: Growth inhibition of human A498 cells incubated for 48 hrs by sulforhodamine B assay
SF-268 = experiment: Growth inhibition of human SF-268 cells assessed as cell growth at 100 uM incubated for 48 hrs by sulforhodamine B assay relative to control; settings: read-out: Activity
[12] = read-out: LC50 (the source's name)
[13] = read-out: pLC50 (the source's name) (converted)

In the case of `CC(=O)Nc1cc(CO[Si](C)(C)C(C)(C)C)cc(NC(=O)c2ccc(C(=O)Nc3cccc(NC(=O)CCCN(C)C)c3)cc2)c1`, the growth at 1 µM (HCC 2998) was 94%, the growth at 0.1 µM (K562 [1]) was 96% and the growth at 0.1 µM (UACC-62) was 94%. For the same molecule, the growth at 100 µM (SW-620 [2]) was 100%, the growth at 0.1 µM (NCI-H460) was 99% and the growth at 1 µM (SN12C) was 100%. For the same molecule, the GI50 (DU-145; read-out: GI50) was greater than 75 µM, the CC50 (DU-145; [12]) was greater than 75 µM and the TGI (DU-145; read-out: TGI) was greater than 75 µM. The GI50 (DU-145; read-out: pGI50 (converted)) was greater than 75.9 µM, the CC50 (DU-145; [13]) was greater than 75.9 µM and the TGI (DU-145; read-out: pTGI) was greater than 75.9 µM. For the same molecule, the growth at 1 µM (OVCAR-3) was 109%, the growth at 0.1 µM (RPMI-8226) was 101% and the growth at 0.1 µM (NCI-H322M) was 95%. It also gave a GI50 (IGROV-1; read-out: GI50) greater than 75 µM, a CC50 (IGROV-1; [12]) greater than 75 µM and a TGI (IGROV-1; read-out: TGI) greater than 75 µM. For the same molecule, the GI50 (IGROV-1; read-out: pGI50 (converted)) was greater than 75.9 µM, the CC50 (IGROV-1; [13]) was greater than 75.9 µM and the TGI (IGROV-1; read-out: pTGI) was greater than 75.9 µM. It also gave a growth at 0.1 µM (BT-549) of 93%, a growth at 0.01 µM (MDA-MB-435) of 98% and a growth at 0.01 µM (SR [3]) of 106%. It also gave a growth at 0.1 µM (PC-3) of 97%, a growth at 0.1 µM (M14) of 95% and a GI50 (A549; read-out: GI50) greater than 75 µM. The CC50 (A549; [12]) was greater than 75 µM, the TGI (A549; read-out: TGI) was greater than 75 µM and the GI50 (A549; read-out: pGI50 (converted)) was greater than 75.9 µM. It also gave a CC50 (A549; [13]) greater than 75.9 µM, a TGI (A549; read-out: pTGI) greater than 75.9 µM and a growth at 0.1 µM (SNB-19) of 96%. It also gave a growth at 0.01 µM (SK-MEL-2) of 100%, a growth at 1 µM (K562 [4]) of 95% and a growth at 0.01 µM (HCT-15 [5]) of 93%. It also gave a growth at 0.1 µM (SW-620 [6]) of 100%, a GI50 (SK-MEL-28 [7]; read-out: GI50) greater than 75 µM and an LC50 (50% lethal concentration) (SK-MEL-28 [7]; read-out: LC50) greater than 75 µM. The TGI (SK-MEL-28 [7]; read-out: TGI) was greater than 75 µM, the GI50 (SK-MEL-28 [7]; read-out: pGI50 (converted)) was greater than 75.9 µM and the LC50 (50% lethal concentration) (SK-MEL-28 [7]; read-out: pLC50 (converted)) was greater than 75.9 µM. The TGI (SK-MEL-28 [7]; read-out: pTGI) was greater than 75.9 µM, the growth at 0.01 µM (SK-MEL-28 [8]) was 98% and the growth at 0.01 µM (T47D) was 99%. The growth at 100 µM (U-251) was 89%, the GI50 (SR [9]; read-out: GI50) was greater than 75 µM and the CC50 (SR [9]; [12]) was greater than 75 µM. The TGI (SR [9]; read-out: TGI) was greater than 75 µM, the GI50 (SR [9]; read-out: pGI50 (converted)) was greater than 75.9 µM and the CC50 (SR [9]; [13]) was greater than 75.9 µM. For the same molecule, the TGI (SR [9]; read-out: pTGI) was greater than 75.9 µM, the GI50 (HCT-116; read-out: GI50) was greater than 75 µM and the CC50 (HCT-116; [12]) was greater than 75 µM. For the same molecule, the TGI (HCT-116; read-out: TGI) was greater than 75 µM, the GI50 (HCT-116; read-out: pGI50 (converted)) was greater than 75.9 µM and the CC50 (HCT-116; [13]) was greater than 75.9 µM. The TGI (HCT-116; read-out: pTGI) was greater than 75.9 µM, the growth at 100 µM (NCI-H226) was 87% and the growth at 1 µM (HCT-15 [10]) was 87%. The growth at 0.01 µM (SW-620 [11]) was 100%, the GI50 (HL-60(TB); read-out: GI50) was greater than 75 µM and the LC50 (HL-60(TB); read-out: LC50) was greater than 75 µM. It also gave a TGI (HL-60(TB); read-out: TGI) greater than 75 µM, a GI50 (HL-60(TB); read-out: pGI50 (converted)) greater than 75.9 µM and an LC50 (HL-60(TB); read-out: pLC50 (converted)) greater than 75.9 µM. The TGI (HL-60(TB); read-out: pTGI) was greater than 75.9 µM, the LC50 (concentration giving 50% net cell kill) (A498; read-out: LC50) was greater than 75 µM and the TGI (A498; read-out: TGI) was greater than 75 µM. The LC50 (concentration giving 50% net cell kill) (A498; read-out: pLC50 (converted)) was greater than 75.9 µM, the TGI (A498; read-out: pTGI) was greater than 75.9 µM and the growth at 100 µM (SF-268) was 82%.
